# Values of other authors, collected in patent US6653469B1, “Antibiotic purification method” (Murty Pharmaceuticals, Inc., priority 2002, dated 2003).
# What was measured:
# [1] = system: heat shock protein 90 (Hsp90)
# [2] = not given; remark: listed apart in the source
"solubility in acetone, benzene, and ethyl acetate (acetone, benzene, ethyl acetate)","solubility in alcohols and aliphatic chlorinated solvents such as chloroform (alcohols, chloroform)",solubility in water (water),"stability to acid, base, or heat ([2]; acid, base, or heat in the presence of oxygen)",photolytic stability ([2]; aqueous and nonaqueous solutions),SMILES,binding to Hsp90 and effect on Hsp90 function [1]
–,–,–,–,–,CO[C@H]1[C@@H](OC)C[C@H](C)[C@@H](OC)C2=CC(=O)C=C(NC(=O)/C(C)=C/C=C\[C@H](OC)[C@@H](OC(N)=O)/C(C)=C/[C@@H]1C)C2=O [herbimycin A],bind specifically to Hsp90
–,–,–,–,–,COC1CC(C)C(OC)c2cc(O)cc(c2O)NC(=O)/C(C)=C\C=C/C(C)C(OC(N)=O)/C(C)=C\C(C)C1OC (stereo not shown) [macbecin II],bind specifically to Hsp90
less soluble,soluble,only slightly soluble,decompose easily,undergoes photolytic degradation,COC1=C2C[C@@H](C)C[C@H](OC)[C@H](O)[C@@H](C)/C=C(\C)[C@H](OC(N)=O)[C@@H](OC)/C=C\C=C(/C)C(=O)NC(=CC1=O)C2=O [geldanamycin],–
